The NIST ThermoML archive (doi:10.1016/j.jct.2016.07.005)

Experiment: xn = mol fraction of the nth substance listed
Details: 100 kPa, Liquid; for viscosity: Concentric cylinders viscometry; for mass density: Vibrating tube method

CN1CCC[C@H]1c1cccnc1 [(-)-3-(N-methylpyrrolidino)pyridine] + CCCCO
Details	mass density [kg/m3]	viscosity [mPa·s]
293.15 K, x1 = 0.1	845.043	3.049
293.15 K, x1 = 0.196	874.098	3.209
293.15 K, x1 = 0.3	901.216	3.408
293.15 K, x1 = 0.3931	922.268	3.601
293.15 K, x1 = 0.5	943.285	3.829
293.15 K, x1 = 0.593	960.358	4.027
293.15 K, x1 = 0.7	975.308	4.242
293.15 K, x1 = 0.7931	987.593	4.412
293.15 K, x1 = 0.9	1000.01	4.578
293.15 K, x1 = 1	1010.23	4.694
298.15 K, x1 = 0.1	841.123	2.692
298.15 K, x1 = 0.196	870.112	2.833
298.15 K, x1 = 0.3	897.182	2.999
298.15 K, x1 = 0.3931	918.206	3.155
298.15 K, x1 = 0.5	939.205	3.337
298.15 K, x1 = 0.593	956.271	3.494
298.15 K, x1 = 0.7	971.222	3.666
298.15 K, x1 = 0.7931	983.509	3.803
298.15 K, x1 = 0.9	995.934	3.942
298.15 K, x1 = 1	1006.16	4.048
303.15 K, x1 = 0.1	837.185	2.374
303.15 K, x1 = 0.196	866.114	2.498
303.15 K, x1 = 0.3	893.14	2.642
303.15 K, x1 = 0.3931	914.139	2.776
303.15 K, x1 = 0.5	935.124	2.931
303.15 K, x1 = 0.593	952.186	3.062
303.15 K, x1 = 0.7	967.138	3.205
303.15 K, x1 = 0.7931	979.432	3.319
303.15 K, x1 = 0.9	991.866	3.433
303.15 K, x1 = 1	1002.1	3.518
308.15 K, x1 = 0.1	833.229	2.105
308.15 K, x1 = 0.196	862.102	2.219
308.15 K, x1 = 0.3	889.089	2.346
308.15 K, x1 = 0.3931	910.068	2.461
308.15 K, x1 = 0.5	931.041	2.592
308.15 K, x1 = 0.593	948.102	2.702
308.15 K, x1 = 0.7	963.059	2.821
308.15 K, x1 = 0.7931	975.36	2.917
308.15 K, x1 = 0.9	987.806	3.013
308.15 K, x1 = 1	998.055	3.088
313.15 K, x1 = 0.1	829.249	1.885
313.15 K, x1 = 0.196	858.073	1.99
313.15 K, x1 = 0.3	885.026	2.103
313.15 K, x1 = 0.3931	905.989	2.203
313.15 K, x1 = 0.5	926.955	2.316
313.15 K, x1 = 0.593	944.017	2.41
313.15 K, x1 = 0.7	958.981	2.514
313.15 K, x1 = 0.7931	971.292	2.598
313.15 K, x1 = 0.9	983.751	2.686
313.15 K, x1 = 1	994.014	2.758
318.15 K, x1 = 0.1	825.24	1.683
318.15 K, x1 = 0.196	854.022	1.777
318.15 K, x1 = 0.3	880.948	1.88
318.15 K, x1 = 0.3931	901.899	1.97
318.15 K, x1 = 0.5	922.862	2.07
318.15 K, x1 = 0.593	939.982	2.152
318.15 K, x1 = 0.7	954.903	2.239
318.15 K, x1 = 0.7931	967.226	2.304
318.15 K, x1 = 0.9	979.704	2.367
318.15 K, x1 = 1	989.984	2.411
323.15 K, x1 = 0.1	821.198	1.495
323.15 K, x1 = 0.196	849.946	1.603
323.15 K, x1 = 0.3	876.851	1.708
323.15 K, x1 = 0.3931	897.795	1.793
323.15 K, x1 = 0.5	918.759	1.882
323.15 K, x1 = 0.593	935.834	1.952
323.15 K, x1 = 0.7	950.822	2.025
323.15 K, x1 = 0.7931	963.162	2.083
323.15 K, x1 = 0.9	975.66	2.143
323.15 K, x1 = 1	985.962	2.195
